Experimental data: patent publication US5747535A, “Selective thrombin inhibitors” (priority 1995, dated 1998)

Biological target: bovine thrombin (Bos taurus, UniProt P00735)
Experiment: biochemical
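Note: bovine thrombin cleaving the chromogenic substrate Chromozym TH, with para-nitroaniline release tracked as absorbance change over time to give initial rates, in Tris buffer at pH 7.8.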
Source text: The thrombin inhibitory effect of the compound of formula (I) according to the present invention can be identified by determination of a dissociation constant Ki represented by the following equation according to the known method described in literature [see, Methods in enzymology V. 80,p341-361;Biochemistry 27,p2144-2151 (1988)].
The dissociation constant Ki denotes the degree of dissociation of the enzyme-thrombin inhibitor complex. […] Such dissociation constant can be determined by reacting thrombin with a certain substrate which develops a color when it is hydrolyzed by the action of thrombin, and then measuring the degree of color development as a function of time by means of spectrophotometry.
Chromozym TH is hydrolyzed by thrombin to produce yellow para-nitroaniline. Accordingly, the amount of yellow para-nitroaniline thus produced can be measured as the change of absorbance in the course of time to determine the thrombin inhibitory activity of the compound according to the present invention. That is, the enzyme activity can be determined from the rate of change in absorbance and then can be directly connected with the ability of the thrombin inhibitor to inhibit the enzyme activity (see, Methods in Enzymology, V. 80,p341-361,Biochemistry 27, p2144-2151, 1988).
The ability of the compound according to the present invention to inhibit the thrombin activity was determined as described in the following.
1160 μl of 0.1M tris buffered solution (pH 7.8) containing 150 mM NaCl and 0.1% PEG 8000 (polyethylene glycol, molecular weight about 8,000) was added to a 1.5 ml cuvette. Chromozym TH was dissolved in dimethylsulfoxide(DMSO) in the concentration of 10mM and the resulting solution was diluted with the said tris buffered solution to the concentration of 0.1 mM, which was then used as the substrate solution. 225 μl of 0.1 mM substrate solution thus prepared was added to the cuvette. The inhibitor solution was prepared by dissolving the thrombin inhibitor compound according to the present invention in dimethylsulfoxide in the concentration of 10 mg/ml and then diluting the resulting solution with the said tris buffered solution to the concentration of 0.1 mg/ml, 0.01 mg/ml, 0.001 mg/ml and 0.0001 mg/ml. The resulting inhibitor solution was taken in an amount corresponding to 0 to 10 μg as the inhibitor and then diluted with tris buffered solution to make the total volume of 100 μl which was added to the cuvette.
15 μl of bovine thrombin solution dissolved in above tris buffered solution in the concentration of 0.1 mg/ml was added to the cuvette to initiate the enzyme hydrolysis reaction. The amount of para-nitroaniline produced for 2 minutes from the moment the enzyme is added was monitored by measuring the absorbance at 381 nm. The continuous spectrum of absorbance to reaction time was depicted. The same experiments were conducted for various concentration of the inhibitor to obtain the continuous spectrum.
In each spectrum, the initial velocity Vi was obtained from the slope within initial 30 seconds of the reaction time and then a graph for the reciprocal value of initial velocity(1/Vi) to the inhibitor concentration was depicted. From the graph, the primary equation satisfying the points depicted thereon was obtained and then the value Ki was calculated from the x intercept of the primary equation using the enzyme reaction equation.
The velocity constant Ks was obtained using the same solution in the same concentration as in determination of the value Ki but using the following experimental procedure.

Ki [nM] | Structure (SMILES)
345 | N=C(NN)c1ccc(C[C@H](NS(=O)(=O)c2ccc3ccccc3c2)C(=O)N(CCOCc2ccccc2)C2CCCC2)cc1 [Example 4, (S)-N-cyclopentyl-N-(2-benzyloxyethyl)-3-(4-amidrazonophenyl)-2-(2-naphthylsulfonylamino)propionamide]
4.35 | CCN(C(=O)[C@H](Cc1ccc(C(=N)NN)cc1)NS(=O)(=O)c1ccc2ccccc2c1)C1CCCC1 [Example 6, (S)-N-cyclopentyl-N-ethyl-3-(4-amidrazonophenyl)-2-(2-naphthylsulfonylamino)propionamide]
227 | COc1cc(C)c(S(=O)(=O)N[C@@H](Cc2ccc(C(=N)NN)cc2)C(=O)N(C)C2CCCC2)c(C)c1C [Example 9, (S)-N-cyclopentyl-N-methyl-3-(4-amidrazonophenyl)-2-[(4-methoxy-2,3,6-trimethylbenzene)sulfonylamino]propionamide]
216 | CN(C)C(=O)[C@H](Cc1ccc(C(=N)NN)cc1)NS(=O)(=O)c1ccc2ccccc2c1 [Example 13, (S)-N,N-dimethyl-3-(4-amidrazonophenyl)-2-(2-naphthylsulfonylamino)propionamide]
16 | CN(C(=O)[C@H](Cc1ccc(C(=N)NN)cc1)NC(=O)Cc1cccc2ccccc12)C1CCCC1 [Example 17, (S)-3-[4-(amidrazono)-phenyl]-N-cyclopentyl-N-methyl-2-(2-naphthalen-1-yl-acetylamino)-propionamide]
17 | CN(C(=O)[C@H](Cc1ccc(C(=N)NN)cc1)NS(=O)(=O)c1cccc2ccccc12)C1CCCC1 [Example 22, (S)-3-[4-(amidrazono)-phenyl]-N-cyclopentyl-N-methyl-2-(naphthalene-1-sulfonylamino)-propionamide]
20100 | CN(C(=O)[C@H](Cc1ccc(C(=N)NN)cc1)NC(=O)COc1ccc2ccccc2c1)C1CCCC1 [Example 24, (S)-3-[4-(amidrazono)-phenyl]-N-cyclopentyl-N-methyl-2-[2-(naphthalene-2-yl-oxy)acetylamino]-propionamide]
259 | COC(=O)CN(C)C(=O)[C@H](Cc1ccc(C(=N)NN)cc1)NS(=O)(=O)c1ccc2ccccc2c1 [Example 25, {[3-(4-amidrazono-phenyl)-(S)-2-(naphthalene-2-sulfonylamino)-propionyl]-methyl-amino}-acetic acid methyl ester]
65 | COC(=O)[C@H](C)N(C)C(=O)[C@H](Cc1ccc(C(=N)NN)cc1)NS(=O)(=O)c1ccc2ccccc2c1 [Example 27, (S)-2-{[3-(4-amidrazono-phenyl)-(S)-2-(naphthalene-2-sulfonylamino)-propionyl]-methyl-amino}propionic acid methyl ester]
89 | COC(=O)[C@@H](C)N(C)C(=O)[C@H](Cc1ccc(C(=N)NN)cc1)NS(=O)(=O)c1ccc2ccccc2c1 [Example 29, (R)-2-{[3-(4-amidrazono-phenyl)-(S)-2-(naphthalene-2-sulfonylamino)-propionyl]-methyl-amino}-propionic acid methyl ester]
165 | COC(=O)[C@@H](C(C)C)N(C)C(=O)[C@H](Cc1ccc(C(=N)NN)cc1)NS(=O)(=O)c1ccc2ccccc2c1 [Example 31, (R)-2-{[3-(4-amidrazono-phenyl)-(S)-2-(naphthalene-2-sulfonylamino)-propionyl]-methyl-amino}-3-methyl-butyric acid methyl ester]
35 | COC(=O)CCN(C)C(=O)[C@H](Cc1ccc(C(=N)NN)cc1)NS(=O)(=O)c1ccc2ccccc2c1 [Example 33, 3-{[3-(4-amidrazono-phenyl)-(S)-2-(naphthalene-2-sulfonylamino)-propionyl]-methylamino}-propionic acid methyl ester]
612 | COC(=O)CCCN(C)C(=O)[C@H](Cc1ccc(C(=N)NN)cc1)NS(=O)(=O)c1ccc2ccccc2c1 [Example 35, 4-{[3-(4-amidrazono-phenyl)-(S)-2-(naphthalene-2-sulfonylamino)-propionyl]-methyl-amino}-butyric acid methyl ester]
165 | CCCCN(CC(=O)OC)C(=O)[C@H](Cc1ccc(C(=N)NN)cc1)NS(=O)(=O)c1ccc2ccccc2c1 [Example 39, {[3-(4-amidrazono-phenyl)-(S)-2-(naphthalene-2-sulfonylamino)-propionyl]-butylamino}-acetic acid methyl ester]
346 | CCOC(=O)C1CCCC1N(C)C(=O)[C@H](Cc1ccc(C(=N)NN)cc1)NS(=O)(=O)c1ccc2ccccc2c1 (stereo partly drawn) [Example 45, 2-{[3-(4-amidrazono-phenyl)-(S)-2-(naphthalene-2-sulfonylamino)-propionyl]-methylamino}-cyclopentane carboxylic acid ethyl ester]
880 | CN(C(=O)[C@H](Cc1ccc(C(=N)NN)cc1)NS(=O)(=O)c1ccc2ccccc2c1)C1CCCC1C(=O)O (stereo partly drawn) [Example 46, 2-{[3-(4-amidrazono-phenyl)-(S)-2-(naphthalene-2-sulfonylamino)-propionyl]-methylamino}-cyclopentane carboxylic acid]
665 | COC(=O)[C@H](C(C)C)N(C)C(=O)[C@H](Cc1ccc(C(=N)NN)cc1)NS(=O)(=O)c1ccc2ccccc2c1 [Example 47, (S)-2-{[3-(4-amidrazono-phenyl)-(S)-2-(naphthalene-2-sulfonylamino)-propionyl]-methylamino}-3-methyl-butyric acid methyl ester]
13 | COC(=O)[C@H]1CCCCN1C(=O)[C@H](Cc1ccc(C(=N)NN)cc1)NS(=O)(=O)c1ccc2ccccc2c1 [Example 48, 1-[3-(4-amidrazono-phenyl)-(S)-2-(naphthalene-2-sulfonylamino)-propionyl]-piperidine-(R)-2-carboxylic acid methyl ester]
406 | N=C(NN)c1ccc(C[C@H](NS(=O)(=O)c2ccc3ccccc3c2)C(=O)N2CCCC[C@@H]2C(=O)O)cc1 [Example 49, 1-[3-(4-amidrazono-phenyl)-(S)-2-(naphthalene-2-sulfonylamino)-propionyl]-piperidine-(R)-2-carboxylic acid]
3300 | CCOC(=O)N1CCN(C(=O)[C@H](Cc2ccc(C(=N)NN)cc2)NS(=O)(=O)c2ccc3ccccc3c2)CC1 [Example 51, (S)-naphthalene-2-sulfonic acid [1-(4-amidrazono)benzyl-2-oxo-2-(4-ethoxycarbonyl-piperazinyl)-ethyl]amide]
50 | N=C(NN)c1ccc(C[C@H](NS(=O)(=O)c2ccc3ccccc3c2)C(=O)N2CCN(C=O)CC2)cc1 [Example 52, (S)-naphthalene-2-sulfonic acid [1-(4-amidrazono)benzyl-2-(4-formyl-piperazinyl)-2-oxoethyl]amide]
530 | CCN1CCN(C(=O)[C@H](Cc2ccc(C(=N)NN)cc2)NS(=O)(=O)c2ccc3ccccc3c2)CC1 [Example 53, (S)-naphthalene-2-sulfonic acid [1-(4-amidrazono)benzyl-2-(4-ethyl-piperazinyl)-2-oxoethyl]amide]
5380 | N=C(NN)c1ccc(C[C@H](NS(=O)(=O)c2ccc3ccccc3c2)C(=O)N2CCN(c3ccccc3)CC2)cc1 [Example 54, (S)-naphthalene-2-sulfonic acid [1-(4-amidrazono)benzyl-2-oxo-2-(4-phenyl-piperazinyl)-ethyl]amide]
